Assay results as given in US10364240B2, “Aryl sulfonamides” (ChemoCentryx, Inc., priority 2002, dated 2019).

What was measured:
[1] = tested on: MDR1a-knockout mice; assay: MDR1a-knockout mice colitis model, prophylactic administration; type: in vivo; conditions: female mice, 50 mg/kg twice a day subcutaneous, 14 weeks from age 10 weeks
Procedure: The MDR1a-knockout mice, which lack the P-glycoprotein gene, spontaneously develop colitis under specific pathogen-free condition. The pathology in these animals has been characterized as Th1-type T cell-mediated inflammation similar to ulcerative colitis in humans. Disease normally begins to develop at around 8-10 weeks after birth. However the ages at which disease emerges and the ultimate penetrance level often vary considerably among different animal facilities.
[drawing 328] was evaluated by prophylactic administration for its ability to delay disease onset. Female mice (n=34) were dosed with 50 mg/kg twice a day by subcutaneous injections for 14 consecutive weeks starting at age 10 weeks. […] Moreover, the number of mice developing diarrhea was also lower among compound-treated mice (17%), compared to mice receiving vehicle alone (24%)(FIG. 1).

[2] = target: T1, CCR9 (Homo sapiens, UniProt P51686); assay: chemotaxis (conventional migration) assay and/or calcium mobilization (calcium flux) assay; type: cell-based; conditions: either or both of the chemotaxis assay and calcium mobilization assays; MOLT-4 cells, TECK
T1 construct: CCR9-expressing cells (such as a T cell line MOLT-4 cells)
T1 sequence (P51686 1-369): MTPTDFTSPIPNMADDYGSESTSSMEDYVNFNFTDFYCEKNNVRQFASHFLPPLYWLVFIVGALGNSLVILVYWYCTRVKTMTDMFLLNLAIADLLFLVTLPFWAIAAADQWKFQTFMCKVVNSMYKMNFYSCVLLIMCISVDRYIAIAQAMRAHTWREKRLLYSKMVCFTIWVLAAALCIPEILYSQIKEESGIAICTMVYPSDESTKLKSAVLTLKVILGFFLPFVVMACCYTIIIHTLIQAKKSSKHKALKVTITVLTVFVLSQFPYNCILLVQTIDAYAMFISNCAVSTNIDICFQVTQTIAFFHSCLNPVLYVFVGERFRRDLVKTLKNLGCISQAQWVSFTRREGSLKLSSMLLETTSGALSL
Procedure: MOLT-4 cells were obtained from the American Type Culture Collection (Manassas, Va.) and cultured in RPMI tissue culture medium supplemented with 10% fetal calf serum (FCS) in a humidified 5% CO2 incubator at 37° C. Recombinant human chemokine protein TECK was obtained from R&D Systems (Minneapolis, Minn.). ChemoTX® chemotaxis microchambers were purchased from Neuro Probe (Gaithersburg, Md.). CyQUANT® cell proliferation kits were purchased from Molecular Probes (Eugene, Oreg.). Calcium indicator dye Fluo-4 AM was purchased from Molecular Devices (Mountain View, Calif.).
Conventional migration assay was used to determine the efficacy of potential receptor antagonists in blocking migration mediated through CCR9. This assay was routinely performed using the ChemoTX® microchamber system with a 5-μm pore-sized polycarbonate membrane. To begin such an assay, MOLT-4 cells were harvested by centrifugation of cell suspension at 1000 PRM on a GS-6R Beckman centrifuge. The cell pellet was resuspended in chemotaxis buffer (HBSS with 0.1% BSA) at 5×10^6 cells/mL. Test compounds at desired concentrations were prepared from 10 mM stock solutions by serial dilutions in chemotaxis buffer. An equal volume of cells and compounds were mixed and incubated at room temperature for 15 minutes. Afterwards, 20 μL of the mixture was transferred onto the porus membrane of a migration microchamber, with 29 μL of 50 nM chemokine TECK protein placed at the lower chamber. Following a 150-minute incubation at 37° C., during which cells migrated against the chemokine gradient, the assay was terminated by removing the cell drops from atop the filter. To quantify cells migrated across the membrane, 5 μL of 7× CyQUANT® solution was added to each well in the lower chamber, and the fluorescence signal measured on a Spectrafluor Plus fluorescence plate reader (TECAN, Durham, N.C.). The degree of inhibition was determined by comparing migration signals betweeen compound-treated and untreated cells. IC50 calculation was further performed by non-linear squares regression analysis using Graphpad Prism (Graphpad Software, San Diego, Calif.).
Calcium flux assay measures an increase in intracellular calcium following ligand-induced receptor activation. In the screen of CCR9 antagonists, it was used as a secondary assay carried out on a FLIPR® machine (Molecular Devices, Mountain View, Calif.). To begin an assay, MOLT-4 cells were harvested by centrifugation of cell suspension, and resuspended to 1.5×10^6 cells/mL in HBSS (with 1% fetal calf serum). Cells were then labeled with a calcium indicator dye Fluo-4 AM for 45 minutes at 37° C. with gentle shaking. Following incubation, cells were pelletted, washed once with HBSS and resuspended in the same buffer at a density of 1.6×10^6 cells/mL. One hundred microliters of labeled cells were mixed with 10 μL of test compound at the appropriate concentrations on an assay plate. […] The degree of inhibition was determined by comparing calcium signals between compound-treated and untreated cells. IC50 calculations were further performed by non-linear squares regression analysis using Graphpad Prism (Graphpad Software, San Diego, Calif.).

Row | IC50 [2] [µM] | SMILES | other results
1 | – | CC(C)(C)c1ccc(S(=O)(=O)Nc2ccc(Cl)cc2C(=O)c2ccncc2)cc1 | IBD-associated growth retardation [1]: prevented IBD-associated growth retardation; number of mice developing diarrhea ([1]; vehicle 24%): 17%
2 | < 1 | Cc1cc(C(=O)c2cc(Cl)ccc2NS(=O)(=O)c2ccc(-c3ncco3)cc2)ccn1 | –
3 | < 1 | CC(C)(c1ccc(S(=O)(=O)Nc2ccc(Cl)cc2C(=O)c2ccccn2)cc1)c1ncco1 | –
4 | < 1 | CC1(c2ccc(S(=O)(=O)Nc3ccc(Cl)cc3C(=O)c3cc[nH]n3)cc2)CCOCC1 | –
5 | < 1 | CC1COC(C)(c2ccc(S(=O)(=O)Nc3ccc(Cl)cc3C(=O)c3ccncc3)cc2)O1 (stereo not drawn) | –
6 | < 1 | C[C@@H]1CC(c2ccc(S(=O)(=O)Nc3ccc(Cl)cc3C(=O)c3cccnc3)cc2)C[C@H](C)O1 (stereo partly drawn) | –
7 | < 1 | Cc1ccc(C(=O)c2cc(Cl)ccc2NS(=O)(=O)c2ccc(C3C[C@@H](C)O[C@@H](C)C3)cc2)cn1 (stereo partly drawn) | –
8 | < 1 | C[C@@H]1CN(c2ccc(S(=O)(=O)Nc3ccc(Cl)cc3C(=O)c3cccnc3)cc2F)C[C@H](C)O1 | –
9 | < 1 | Cc1ccc(S(=O)(=O)Nc2ccc(Cl)cc2C(=O)c2ccncc2)cc1 | –
10 | < 1 | Cc1ccc(C(=O)c2cc(Cl)ccc2NS(=O)(=O)c2ccc(S(C)(=O)=O)cc2)cn1 | –
11 | < 1 | CS(=O)(=O)c1ccc(S(=O)(=O)Nc2ccc(Br)cc2C(=O)c2ccncc2)cc1 | –
12 | < 1 | CC(C)(C)c1ccc(S(=O)(=O)Nc2ccc(Cl)cc2C(=O)c2ncccn2)cc1 | –
13 | < 1 | O=C(c1ccncc1)c1cc(Br)ccc1NS(=O)(=O)c1ccc(OC(F)(F)F)cc1 | –
14 | < 1 | CC(C)(CO)c1ccc(S(=O)(=O)Nc2ccc(Cl)cc2C(=O)c2cc[n+]([O-])cc2)cc1 | –
15 | < 1 | CC(=O)OCC(C)(C)c1ccc(S(=O)(=O)Nc2ccc(Cl)cc2C(=O)c2ccncc2)cc1 | –
16 | < 1 | O=C(c1cccnc1)c1cc(Cl)ccc1NS(=O)(=O)c1ccc(-c2cnco2)cc1 | –
17 | < 1 | Cc1c(C(=O)c2cc(Cl)ccc2NS(=O)(=O)c2ccc(OC(C)C)cc2)ccc[n+]1[O-] | –
18 | < 1 | O=C(c1ccncc1)c1cc(Cl)ccc1NS(=O)(=O)c1ccc(Br)cc1 | –
19 | < 1 | CSc1cc(C(=O)c2cc(Cl)ccc2NS(=O)(=O)c2ccc(C(C)(C)C)cc2)ccn1 | –
20 | < 1 | COc1cc(C(=O)c2cc(Cl)ccc2NS(=O)(=O)c2ccc(C(C)(C)C)cc2)ccn1 | –
21 | < 1 | COC(=O)CCc1ccc(S(=O)(=O)Nc2ccc(Cl)cc2C(=O)c2ccc(C)nc2)cc1 | –
22 | < 1 | Cc1ccc(C(=O)c2cc(Cl)ccc2NS(=O)(=O)c2ccc(OC(F)(F)F)cc2)c[n+]1[O-] | –

Row | IC50 [2] [µM] | SMILES | other results
23 | < 1 | Cc1ccc(C(=O)c2cc(Cl)ccc2NS(=O)(=O)c2ccc(OC(C)C)cc2)c[n+]1[O-] | –
24 | < 1 | CC(C)(C)c1ccc(S(=O)(=O)Nc2ccc(Cl)cc2C(=O)c2ccc(S(C)(=O)=O)nc2)cc1 | –
25 | < 1 | O=C(c1ncccn1)c1cc(Cl)ccc1NS(=O)(=O)c1ccc(-c2cnco2)cc1 | –
26 | < 1 | O=C(c1cc[n+]([O-])cc1)c1cc(Cl)ccc1NS(=O)(=O)c1ccc(-c2cnco2)cc1 | –
27 | < 1 | CC(C)(C)c1ccc(S(=O)(=O)Nc2ccc(Cl)cc2C(=O)c2cccc[n+]2[O-])cc1 | –
28 | < 1 | Cc1nc(C)c(-c2ccc(S(=O)(=O)Nc3ccc(Cl)cc3C(=O)c3ccncc3)cc2)o1 | –
29 | < 1 | O=C(c1ccncc1)c1cc(Cl)ccc1NS(=O)(=O)c1ccc2c(c1)CNCC2 | –
30 | < 1 | CCc1ccc(S(=O)(=O)Nc2ccc(Br)cc2C(=O)c2ccncc2)cc1 | –
31 | < 1 | COC(=O)CCc1ccc(S(=O)(=O)Nc2ccc(Cl)cc2C(=O)c2cccnc2C)cc1 | –
32 | < 1 | CC(C)(C)c1ccc(S(=O)(=O)Nc2ccc(Cl)cc2C(=O)c2cnccn2)cc1 | –
33 | < 1 | CC(C)(C)c1ccc(S(=O)(=O)Nc2c(Cl)cccc2C(=O)c2ccncc2)cc1 | –
34 | < 1 | Cc1c(C(=O)c2cc(Cl)ccc2NS(=O)(=O)c2ccc(OC(F)(F)F)cc2)ccc[n+]1[O-] | –
35 | < 1 | O=C(c1cccnc1)c1cc(Cl)ccc1NS(=O)(=O)c1ccc(-c2cocn2)cc1 | –
36 | < 1 | CC(C)(c1ccc(S(=O)(=O)Nc2cc(F)c(F)cc2C(=O)c2cccnc2)cc1)c1ncco1 | –
37 | > 1 | CS(=O)(=O)c1ccc(S(=O)(=O)Nc2ccc(Cl)cc2C(=O)c2cccnc2)cc1 | –
38 | > 1 | COc1ccc(S(=O)(=O)Nc2ccc(Cl)cc2C(=O)c2ccccn2)cc1 | –
39 | > 1 | Cc1cc(C(=O)c2cc(Cl)ccc2NS(=O)(=O)c2ccc(S(C)(=O)=O)cc2)ccn1 | –
40 | > 1 | COC(=O)CCc1ccc(S(=O)(=O)Nc2ccc(Cl)cc2C(=O)c2ccnc(C)c2)cc1 | –
41 | > 1 | O=C(c1cccnc1)c1cc(Cl)ccc1NS(=O)(=O)c1ccc(-c2nccs2)cc1 | –
42 | > 1 | C[C@H]1OC(C)(c2ccc(S(=O)(=O)Nc3ccc(Cl)cc3C(=O)c3ccncc3)cc2)O[C@@H]1C | –
43 | < 1 | COc1c(Cl)ccc(NS(=O)(=O)c2ccc(C(C)(C)C)cc2)c1C(=O)c1ccncc1 [drawing 475] | –
44 | > 1 | COc1c(Cl)ccc(NS(=O)(=O)c2ccc(C(C)(C)C)cc2)c1C(=O)c1ccncc1 [drawing 520] | –
